Assay results taken from ChEMBL document CHEMBL5053499, “Indole Alkaloids from a Soil-Derived Clonostachys rosea” (J Nat Prod, 2021).
In brackets after ≈: the same amount, converted by molar mass. Activity calls are given as the source filed them. The rule behind the calls is not given here.

Tests used:
HepG2 = experiment: Cytotoxicity against human HepG2 cells assessed as reduction in cell viability measured after 48 hrs by CCK8 assay; format: functional, cell-based; conditions: HepG2, 48 h
Staphylococcus aureus = experiment: Antimicrobial activity against Staphylococcus aureus assessed as reduction in bacterial growth at 100 ug/ml measured after 48 hrs by double dilution method; format: functional, organism-based; conditions: dose 100.0 µg/ml
Pseudomonas sp. [1] = experiment: Antimicrobial activity against Pseudomonas sp. assessed as reduction in bacterial growth at 100 ug/ml measured after 48 hrs by double dilution method; format: functional, organism-based; conditions: dose 100.0 µg/ml
Bacillus subtilis = experiment: Antimicrobial activity against Bacillus subtilis assessed as reduction in bacterial growth at 100 ug/ml measured after 48 hrs by double dilution method; format: functional; conditions: for Activity: dose 100.0 µg/ml
Ralstonia solanacearum = experiment: Antimicrobial activity against Ralstonia solanacearum assessed as reduction in bacterial growth at 100 ug/ml measured after 48 hrs by double dilution method; format: functional, organism-based; conditions: dose 100.0 µg/ml
[2] = system: Pseudomonas syringae pv. actinidiae; experiment: Antimicrobial activity against Pseudomonas syringae pv. actinidiae assessed as reduction in bacterial growth measured at 100 ug/ml after 48 hrs by double dilution method; format: functional; conditions: dose 100.0 µg/ml
HeLa = experiment: Cytotoxicity against human HeLa cells assessed as reduction in cell viability measured after 48 hrs by CCK8 assay; format: functional, cell-based
Bacillus cereus = experiment: Antimicrobial activity against Bacillus cereus assessed as reduction in bacterial growth at 100 ug/ml measured after 48 hrs by double dilution method; format: functional, organism-based; conditions: dose 100.0 µg/ml
Escherichia coli = experiment: Antimicrobial activity against Escherichia coli assessed as reduction in bacterial growth at 100 ug/ml measured after 48 hrs by double dilution method; format: functional, organism-based; conditions: dose 100.0 µg/ml
Phytophthora capsici = experiment: Antifungal activity against Phytophthora capsici assessed as inhibition of fungal growth measured after 72 hrs by double dilution method; format: functional, organism-based
Pseudomonas sp. [3] = experiment: Antimicrobial activity against Pseudomonas sp. assessed as reduction in bacterial growth measured after 48 hrs by double dilution method; format: functional
Alternaria alternata = experiment: Antifungal activity against Alternaria alternata assessed as inhibition of fungal growth measured after 72 hrs by double dilution method; format: functional, organism-based
Fusarium oxysporum = experiment: Antifungal activity against Fusarium oxysporum assessed as inhibition of fungal growth measured after 72 hrs by double dilution method; format: functional

SMILES: C[C@@H](O)[C@]12SS[C@@]3(C(=O)N1C)[C@H](O)[C@@]1(c4c[nH]c5ccccc45)c4ccccc4N[C@H]1N3C2=O
- IC50 (HepG2): 0.6 µM
- Activity (Staphylococcus aureus): inactive
- Activity (Pseudomonas sp. [1]): inactive
- Activity (Bacillus subtilis): inactive
- Activity (Ralstonia solanacearum): inactive
- Activity [2]: inactive
- IC50 (HeLa): 0.42 µM
- Activity (Bacillus cereus): inactive
- Activity (Escherichia coli): inactive

SMILES: C[C@@H](O)[C@@H]1NC(=O)[C@H](Cc2c[nH]c3ccccc23)NC1=O
- IC50 (HepG2): > 20 µM
- Activity (Staphylococcus aureus): inactive
- Activity (Pseudomonas sp. [1]): inactive
- Activity (Phytophthora capsici): inactive
- Activity (Bacillus subtilis): inactive
- MIC (Pseudomonas sp. [3]): 50 µg/mL (≈ 174 µM)
- Activity (Ralstonia solanacearum): inactive
- Activity [2]: inactive
- Activity (Alternaria alternata): inactive
- IC50 (HeLa): > 20 µM
- Activity (Bacillus cereus): inactive
- Activity (Escherichia coli): inactive
- Activity (Fusarium oxysporum): inactive

SMILES: C[C@@H](O)[C@]12SS[C@@]3(C(=O)N1C)[C@H](O)C1([C@]45c6ccccc6N[C@H]4N4C(=O)[C@@]6([C@@H](C)O)SS[C@@]4(C(=O)N6C)[C@@H]5O)c4ccccc4N[C@H]1N3C2=O (stereo not given in full)
- IC50 (HepG2): 0.37 µM
- Activity (Staphylococcus aureus): inactive
- Activity (Pseudomonas sp. [1]): inactive
- Activity (Bacillus subtilis): inactive
- Activity (Ralstonia solanacearum): inactive
- Activity [2]: inactive
- IC50 (HeLa): 0.12 µM
- Activity (Bacillus cereus): inactive
- Activity (Escherichia coli): inactive

SMILES: CS[C@@]1(Cc2c[nH]c3ccccc23)NC(=O)[C@@](SC)([C@@H](C)O)NC1=O
- IC50 (HepG2): > 20 µM
- Activity (Staphylococcus aureus): inactive
- Activity (Pseudomonas sp. [1]): inactive
- Activity (Bacillus subtilis): inactive
- Activity (Ralstonia solanacearum): inactive
- Activity [2]: inactive
- IC50 (HeLa): > 20 µM
- Activity (Bacillus cereus): inactive
- Activity (Escherichia coli): inactive

SMILES: CS[C@@H]1C(=O)N2[C@@H]3Nc4ccccc4[C@]3(c3c[nH]c4ccccc34)[C@@H](O)[C@@]2(SC)C(=O)N1C
- IC50 (HepG2): > 20 µM
- Activity (Staphylococcus aureus): inactive
- Activity (Pseudomonas sp. [1]): inactive
- Activity (Bacillus subtilis): inactive
- Activity (Ralstonia solanacearum): inactive
- Activity [2]: inactive
- IC50 (HeLa): > 20 µM
- Activity (Bacillus cereus): inactive
- Activity (Escherichia coli): inactive

SMILES: CN1C(=O)C(=O)N2C(=C[C@@]3(c4c[nH]c5ccccc45)c4ccccc4N[C@@H]23)C1=O
- IC50 (HepG2): > 20 µM
- Activity (Staphylococcus aureus): inactive
- Activity (Pseudomonas sp. [1]): inactive
- Activity (Bacillus subtilis): inactive
- Activity (Ralstonia solanacearum): inactive
- Activity [2]: inactive
- IC50 (HeLa): > 20 µM
- Activity (Bacillus cereus): inactive
- Activity (Escherichia coli): inactive

SMILES: CS[C@@]1(Cc2c[nH]c3ccccc23)NC(=O)[C@H]([C@@H](C)O)NC1=O
- IC50 (HepG2): > 20 µM
- Activity (Staphylococcus aureus): inactive
- Activity (Pseudomonas sp. [1]): inactive
- Activity (Bacillus subtilis): inactive
- Activity (Ralstonia solanacearum): inactive
- Activity [2]: inactive
- IC50 (HeLa): > 20 µM
- Activity (Bacillus cereus): inactive
- Activity (Escherichia coli): inactive

SMILES: C[C@H](O)[C@H]1NC(=O)[C@@H](Cc2c[nH]c3ccccc23)NC1=O
- Activity (Phytophthora capsici): inactive
- MIC (Bacillus subtilis; dose 100 µg/ml): 25 µg/mL (≈ 87 µM)
- Activity (Alternaria alternata): inactive
- Activity (Fusarium oxysporum): inactive

SMILES: C[C@@H](O)[C@@H]1OC(=O)[C@@H]2[C@H]3c4c[nH]c5cccc(c45)C[C@H]3C(C)(C)N2C1=O
- IC50 (HepG2): > 20 µM
- Activity (Staphylococcus aureus): inactive
- Activity (Pseudomonas sp. [1]): inactive
- Activity (Phytophthora capsici): inactive
- Activity (Bacillus subtilis): inactive
- Activity (Ralstonia solanacearum): inactive
- Activity [2]: inactive
- Activity (Alternaria alternata): inactive
- IC50 (HeLa): > 20 µM
- Activity (Bacillus cereus): inactive
- Activity (Escherichia coli): inactive
- MIC (Fusarium oxysporum): 50 µg/mL (≈ 141 µM)

SMILES: O=C(O)c1ccc(O)c2c1Cc1cccn1-2
- IC50 (HepG2): > 20 µM
- Activity (Staphylococcus aureus): inactive
- Activity (Pseudomonas sp. [1]): inactive
- Activity (Phytophthora capsici): inactive
- Activity (Bacillus subtilis): inactive
- Activity (Ralstonia solanacearum): inactive
- Activity [2]: inactive
- Activity (Alternaria alternata): inactive
- IC50 (HeLa): > 20 µM
- Activity (Bacillus cereus): inactive
- Activity (Escherichia coli): inactive
- Activity (Fusarium oxysporum): inactive
